Laboratory results published in patent US7981912B2, “Indole acetic acids exhibiting CRTH2 receptor antagonism and uses thereof” (Wyeth LLC, priority 2004, dated 2011).

These compounds were tested against T1, human CRTH2 (Homo sapiens, UniProt Q9Y5Y4) (assay: CRTH-2 binding assay (scintillation proximity assay, inhibition of 3H-PGD2 binding)). Details: inhibition of 3H-PGD2 (3.6 nM) binding to HEK 293EBNA-hCRTH2 membranes; Ki calculated from IC50.
T1 sequence (Q9Y5Y4 1-395): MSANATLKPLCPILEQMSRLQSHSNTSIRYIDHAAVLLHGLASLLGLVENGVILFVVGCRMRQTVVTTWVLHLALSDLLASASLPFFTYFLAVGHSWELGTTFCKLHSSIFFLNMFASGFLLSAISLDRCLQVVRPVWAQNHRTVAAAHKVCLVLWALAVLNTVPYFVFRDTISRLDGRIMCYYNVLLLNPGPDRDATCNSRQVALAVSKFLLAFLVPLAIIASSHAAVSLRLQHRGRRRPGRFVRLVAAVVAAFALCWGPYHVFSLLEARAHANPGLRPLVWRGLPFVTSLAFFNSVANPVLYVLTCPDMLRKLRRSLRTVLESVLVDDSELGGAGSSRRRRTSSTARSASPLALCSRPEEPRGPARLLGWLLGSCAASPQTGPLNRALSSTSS
Parameters: expressed in transfected cells; host or cells: HEK 293EBNA-hCRTH2 (membrane preparation)
Protocol: A CRTH2 binding assay was developed to measure the ability of compounds to inhibit the binding of PGD2 to human CRTH2 using a scintillation proximity assay.
Membranes containing hCRTH2 receptors were prepared from HEK 293EBNA-hCRTH2 cells (a HEK 293EBNA cell line stably expressing human CRTH2). The cells were grown to confluency, harvested and washed with PBS. The cells were resuspended in 10 mM Hepes pH 7.4, 1 mM EDTA and protease inhibitors and incubated for 30 min on ice. The cells were homogenized and centrifuged for 10 min at 1000×g. The supernate was centrifuged for 30 min at 100,000×g and the membrane pellet was then resusupended in 10 mM Hepes pH 7.4 and 1 mM EDTA. The protein concentration of the membrane preparation was determined by Bradford assay (Bio-Rad).
The ability of compounds to inhibit the interaction of PGD2 to human CRTH2 was determined at seven compound concentrations. Compounds were serially diluted in DMSO then diluted into CRTH2 buffer without glycerol (10 mM Hepes pH 7.4, 1 mM EDTA, 10 mM MnCl2) to six times the final desired concentration. 20 μL of the diluted compounds were transferred into non-surface binding 96 well plates (Corning). Each concentration was done in triplicate. In addition to test compounds, each plate contained 12 control wells. Six of these wells contained 20 μL of CRTH2 buffer without glycerol. These wells were used to measure total binding. Six wells contained 20 μL of CRTH2 buffer without glycerol plus 1.5 mM indomethacin. These wells were used to measure non-specific binding. Next, HEK 293EBNA-hCRTH2 membranes were resuspended in CRTH2 buffer with glycerol (10 mM Hepes pH 7.4, 1 mM EDTA, 10 mM MnCl2, 25% glycerol) so that the final concentration was approximately 20 μg protein/100 μL. Polylysine coated yttrium silicate SPA beads (Amershamn) were added to the membrane mix to a concentration of 0.4 mg/100 μL and finally ^3H-PGD2 was added to the membrane/SPA bead mix to 3.6 nM. 100 μL of the membrane/SPA bead/^3H-PGD2 mix was added to each well of the non-surface binding plates containing the diluted compound plus controls. The plates were incubated for 2 hours at room temperature with shaking and then the plates were counted on a Microbeta scintillation counter (Perkin Elmer) for 1 min per well.
IC50 values were determined from the experimental results by nonlinear regression using Prism 4.0 software. The IC50 values were then used in conjunction with the […] for hCRTH2 and the ^3H-PGD2 concentration used in the experiment to calculate the Ki for each compound.

`CCCCN1N=C(c2c(C)n(CC(=O)O)c3ccccc23)[C@H]2CC=CC[C@H]2C1=O` (stereo in doubt) [Example 70, [3-(3-Butyl-4-oxo-3,4,4a,5,8,8a-hexahydro-phthalazin-1-yl)-2-methyl-indol-1-yl]-acetic acid] and `Cc1c(C2=NN(CCc3ccccc3)C(=O)[C@@H]3CC=CC[C@H]23)c2ccccc2n1CC(=O)O` (stereo in doubt) [Example 72, [2-Methyl-3-(4-oxo-3-phenethyl-3,4,4a,5,8,8a-hexahydro-phthalazin-1-yl)-indol-1-yl]-acetic acid] cannot be ordered by Ki: < 1 µM for the first, < 0.1 µM for the second.

`O=C(O)Cn1cc(C2NS(=O)(=O)c3ccccc32)c2ccccc21` (stereo not drawn) [Example 1, [3-(1,1-Dioxo-2,3-dihydro-1λ^6-benzo[d]isothiazol-3-yl)-indol-1-yl]-acetic acid] and `Cc1ccc2c(c1)c(C1NS(=O)(=O)c3ccccc31)cn2CC(=O)O` (stereo not drawn) [Example 2, [3-(1,1-Dioxo-2,3-dihydro-1H-1λ^6-benzo[d]isothiazol-3-yl)-5-methyl-indol-1-yl]-acetic acid] cannot be ordered by Ki: < 10 µM for the first, < 10 µM for the second.

`Cc1c(C2NS(=O)(=O)c3ccccc32)c2ccccc2n1CC(=O)O` (stereo not drawn) [Example 3, [3-(1,1-Dioxo-2,3-dihydro-1H-1λ^6-benzo[d]isothiazol-3-yl)-2-methyl-indol-1-yl]-acetic acid] and `Cc1c(C2NS(=O)(=O)c3ccccc32)c2cc(Cl)ccc2n1CC(=O)O` (stereo not drawn) [Example 6, [5-Chloro-3-(1,1-dioxo-2,3-dihydro-1H-1λ^6-benzo[d]isothiazol-3-yl)-2-methyl-indol-1-yl]-acetic acid] cannot be ordered by Ki: < 10 µM for the first, < 1 µM for the second.

`COc1ccc2c(c1)c(C1NS(=O)(=O)c3ccccc31)cn2CC(=O)O` (stereo not drawn) [Example 4, [3-(1,1-Dioxo-2,3-dihydro-1H-1λ^6-benzo[d]isothiazol-3-yl)-5-methoxy-indol-1-yl]-acetic acid] and `O=C(O)Cn1cc(C2NS(=O)(=O)c3ccccc32)c2cc(Cl)ccc21` (stereo not drawn) [Example 5, [5-Chloro-3-(1,1-dioxo-2,3-dihydro-1H-1λ^6-benzo[d]isothiazol-3-yl)-indol-1-yl]-acetic acid] cannot be ordered by Ki: < 10 µM for the first, < 10 µM for the second.

`Cc1ccc2c(c1)c(C1NS(=O)(=O)c3ccccc31)c(C)n2CC(=O)O` (stereo not drawn) [Example 7, [3-(1,1-Dioxo-2,3-dihydro-1H-1λ^6-benzo[d]isothiazol-3-yl)-2,5-dimethyl-indol-1-yl]-acetic acid] and `Cc1c(C2NS(=O)(=O)c3ccccc32)c2cc(F)ccc2n1CC(=O)O` (stereo not drawn) [Example 10, [3-(1,1-Dioxo-2,3-dihydro-1H-1λ^6-benzo[d]isothiazol-3-yl)-5-fluoro-2-methyl-indol-1-yl]-acetic acid] cannot be ordered by Ki: < 10 µM for the first, < 1 µM for the second.

`O=C(O)Cn1cc(C2NS(=O)(=O)c3ccccc32)c2cc(Br)ccc21` (stereo not drawn) [Example 8, [5-Bromo-3-(1,1-dioxo-2,3-dihydro-1H-1λ^6-benzo[d]isothiazol-3-yl)-indol-1-yl]-acetic acid] and `N#Cc1ccc2c(c1)c(C1NS(=O)(=O)c3ccccc31)cn2CC(=O)O` (stereo not drawn) [Example 9, [5-Cyano-3-(1,1-dioxo-2,3-dihydro-1H-1λ^6-benzo[d]isothiazol-3-yl)-indol-1-yl]-acetic acid] cannot be ordered by Ki: < 10 µM for the first, < 10 µM for the second.

`O=C(O)Cn1cc(C2NS(=O)(=O)c3ccccc32)c2c(Cl)cccc21` (stereo not drawn) [Example 11, [4-Chloro-3-(1,1-dioxo-2,3-dihydro-1H-1λ^6-benzo[d]isothiazol-3-yl)-indol-1-yl]-acetic acid] and `O=C(O)Cn1cc(C2NS(=O)(=O)c3ccccc32)c2ccc(Cl)cc21` (stereo not drawn) [Example 12, [6-Chloro-3-(1,1-dioxo-2,3-dihydro-1H-1λ^6-benzo[d]isothiazol-3-yl)-indol-1-yl]-acetic acid] cannot be ordered by Ki: < 1 µM for the first, < 1 µM for the second.

`Cc1c(C2NS(=O)(=O)c3cc(F)ccc32)c2ccccc2n1CC(=O)O` (stereo not drawn) [Example 13, [3-(6-Fluoro-1,1-dioxo-2,3-dihydro-1H-1λ^6-benzo[d]isothiazol-3-yl)-2-methyl-indol-1-yl]-acetic acid] and `Cc1c(C2=NN(CCC(C)C)S(=O)(=O)c3ccccc32)c2ccccc2n1CC(=O)O` [Example 23, {2-Methyl-3-[2-(3-methyl-butyl)-1,1-dioxo-1,2-dihydro-1λ^6-benzo[e][1,2,3]thiadiazin-4-yl]-indol-1-yl}-acetic acid] cannot be ordered by Ki: < 1 µM for the first, < 0.1 µM for the second.

First: CN1C(c2cn(CC(=O)O)c3ccccc23)c2ccccc2S1(=O)=O (stereo not drawn) [Example 14, [3-(2-Methyl-1,1-dioxo-2,3-dihydro-1H-1λ^6-benzo[d]isothiazol-3-yl)-indol-1-yl]-acetic acid]
Second: CN1C(=O)c2ccccc2C1c1cn(CC(=O)O)c2ccccc12 (stereo not drawn) [Example 20, [3-(2-Methyl-3-oxo-2,3-dihydro-1H-isoindol-1-yl)-indol-1-yl]-acetic acid]
The Ki of the first is lower: < 10 µM for the first, > 10 µM for the second. The first binds more tightly here.

`O=C(O)Cn1cc(-c2nn(Cc3ccccc3)c(=O)c3ccccc23)c2ccccc21` [Example 15, [3-(3-Benzyl-4-oxo-3,4-dihydro-phthalazin-1-yl)-indol-1-yl]-acetic acid] and `O=C(O)Cn1cc(C2=NN(Cc3ccccc3)S(=O)(=O)c3ccccc32)c2ccccc21` [Example 17, [3-(2-Benzyl-1,1-dioxo-1,2-dihydro-1λ6-benzo[e][1,2,3]thiadiazin-4-yl)-indol-1-yl]-acetic acid] cannot be ordered by Ki: < 1 µM for the first, < 1 µM for the second.

`CN1N=C(c2cn(CC(=O)O)c3ccccc23)c2ccccc2S1(=O)=O` [Example 18, [3-(2-Methyl-1,1-dioxo-1,2-dihydro-1λ6-benzo[e][1,2,3]thiadiazin-4-yl)-indol-1-yl]-acetic acid] and `Cc1c(C2=NN(CCc3ccccc3)S(=O)(=O)c3ccccc32)c2ccccc2n1CC(=O)O` [Example 19, [3-(1,1-Dioxo-2-phenethyl-1,2-dihydro-1λ^6-benzo[e][1,2,3]thiadiazin-4-yl)-2-methyl-indol-1-yl]-acetic acid] cannot be ordered by Ki: < 10 µM for the first, < 0.1 µM for the second.

`Cc1c(-c2ccc(=O)n(Cc3ccccc3)n2)c2cc(Cl)ccc2n1CC(=O)O` [Example 21, [3-(1-Benzyl-6-oxo-1,6-dihydro-pyridazin-3-yl)-5-chloro-2-methyl-indol-1-yl]-acetic acid] and `Cc1c(-c2nn(Cc3nc4ccccc4s3)c(=O)c3ccccc23)c2cc(Cl)ccc2n1CC(=O)O` [Example 26, [3-(3-Benzothiazol-2-ylmethyl-4-oxo-3,4-dihydro-phthalazin-1-yl)-5-chloro-2-methyl-indol-1-yl]-acetic acid] cannot be ordered by Ki: < 0.1 µM for the first, < 0.1 µM for the second.

`Cc1noc(C)c1CN1C(=O)c2ccccc2C1c1cn(CC(=O)O)c2ccccc12` (stereo not drawn) [Example 22, {3-[2-(3,5-Dimethyl-isoxazol-4-ylmethyl)-3-oxo-2,3-dihydro-1H-isoindol-1-yl]-indol-1-yl}-acetic acid] and `Cc1c(-c2nn(CC3COc4ccccc4O3)c(=O)c3ccccc23)c2cc(Cl)ccc2n1CC(=O)O` (stereo not drawn) [Example 27, {5-Chloro-3-[3-(2,3-dihydro-benzo[1,4]dioxin-2-ylmethyl)-4-oxo-3,4-dihydro-phthalazin-1-yl]-2-methyl-indol-1-yl}-acetic acid] cannot be ordered by Ki: < 1 µM for the first, < 0.1 µM for the second.

For `Cc1c(-c2nn(CCOc3ccc(Cl)cc3)c(=O)c3ccccc23)c2cc(Cl)ccc2n1CC(=O)O` [Example 25, (5-Chloro-3-{3-[2-(4-chloro-phenoxy)-ethyl]-4-oxo-3,4-dihydro-phthalazin-1-yl}-2-methyl-indol-1-yl)-acetic acid], the Ki was < 0.1 µM.
